For this assay, the target named is myeloperoxidase (MPO) (Homo sapiens, UniProt P05164). It is filed as biochemical.
Chain of myeloperoxidase (MPO) (P05164 165-273): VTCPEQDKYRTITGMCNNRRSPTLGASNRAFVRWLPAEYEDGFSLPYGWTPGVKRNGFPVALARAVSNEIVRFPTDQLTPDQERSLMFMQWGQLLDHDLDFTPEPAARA
Chain of myeloperoxidase (MPO) (P05164 279-745): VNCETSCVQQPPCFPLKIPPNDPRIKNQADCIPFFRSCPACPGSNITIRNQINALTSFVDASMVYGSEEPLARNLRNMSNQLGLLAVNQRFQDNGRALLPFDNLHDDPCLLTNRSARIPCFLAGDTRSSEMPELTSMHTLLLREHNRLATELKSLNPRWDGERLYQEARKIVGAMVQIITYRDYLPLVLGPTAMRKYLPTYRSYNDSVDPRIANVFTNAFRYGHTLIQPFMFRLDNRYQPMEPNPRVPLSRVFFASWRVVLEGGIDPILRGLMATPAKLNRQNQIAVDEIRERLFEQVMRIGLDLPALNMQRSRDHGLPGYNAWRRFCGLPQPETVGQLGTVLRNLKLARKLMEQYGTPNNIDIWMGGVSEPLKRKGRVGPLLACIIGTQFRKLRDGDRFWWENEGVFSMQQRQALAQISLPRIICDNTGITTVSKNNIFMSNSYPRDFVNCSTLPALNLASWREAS

A word on the IC50: it is the point on the concentration scale where inhibition reaches its midpoint. A low value points to greater potency in that assay. In turn, `COc1cc(CC(CO[C@@H]2O[C@H](CO)[C@@H](O)[C@H](O)[C@H]2O)C(CO[C@@H]2O[C@H](CO)[C@@H](O)[C@H](O)[C@H]2O)Cc2ccc(O)c(OC)c2)ccc1O` (stereo partly shown) [LGM2605] had an IC50 of 63.5 µM.

Source of the values: paper PMC5970065 (Biochimica et biophysica acta, 2018).
